According to patent US7897330B2, “Methods for characterizing enzyme inhibitors” (AB Sciex, LLC, priority 2005, dated 2011):
Like-named read-outs stand apart in the source and are kept apart here.

What was measured:
[1] = target: P. falciparum LDH (Plasmodium falciparum, UniProt Q27743); test: fluorescence-coupled LDH enzyme assay on microfluidics system, continuously variable concentration gradient, fit to Equation 4; assay type: biochemical
Source text: A fluorescence-coupled enzyme assay was developed using a microfluidics system described herein for creating a continuously variable concentration gradient to monitor the reduction of NAD^+ by the enzyme LDH to give a fluorescent end product. This system was then adapted to measure potency and determine mechanism of inhibition by various inhibitors of LDH.
One of the products of the reaction in the assay, NADH, is coupled to Thermus thermophilus NADH oxidase to generate H2O2, which in turn is coupled to horseradish peroxidase which reacts with […] and amplex red (Molecular Probes, Inc., Eugene, Oreg., U.S.A.) to give the fluorescent product resorufin. […]
The novel data analysis techniques described herein for determining the mechanism of inhibition of an inhibitor (or mechanism of activation of an activator) are applied to the data produced from the microfluidics system. The titration of the enzyme with a continuous linear variation of inhibitor and substrate from zero to a pre-determined finite concentration yields a characteristic rate profile that is defined by the specific type of interaction of the inhibitor and enzyme with respect to the substrate. […]
The titration of LDH with a linear gradient of NAD^+ was performed on the microfluidics system described herein with the change in relative fluorescence intensity monitored under initial rate conditions. […]

[2] = tested on: LDH; conditions: cited from earlier work
[3] = target: T1, rabbit muscle lactate dehydrogenase (LDH) (Oryctolagus cuniculus, UniProt P13491); test: continuous variation method on microtiter plate, step concentration gradients; assay type: biochemical
T1 construct: the enzyme rabbit muscle lactate dehydrogenase (LDH); from tissue; host or cells: rabbit muscle
Source text: Determination of the mechanism of inhibition by the inhibitor oxalate with respect to the substrate NAD^+ against the enzyme rabbit muscle lactate dehydrogenase (LDH) using a microtiter plate to generate individual step concentration gradients was attempted. FIG. 47 is a graph showing the results of the experiment. An attempt to determine the mechanism of inhibition by the inhibitor oxalate with respect to the substrate lactate against the enzyme rabbit muscle LDH using a microtiter plate to generate individual step concentration gradients was attempted. FIG. 48 is a graph showing the results of this experiment.

P. falciparum LDH, sequence (Q27743 whole entry): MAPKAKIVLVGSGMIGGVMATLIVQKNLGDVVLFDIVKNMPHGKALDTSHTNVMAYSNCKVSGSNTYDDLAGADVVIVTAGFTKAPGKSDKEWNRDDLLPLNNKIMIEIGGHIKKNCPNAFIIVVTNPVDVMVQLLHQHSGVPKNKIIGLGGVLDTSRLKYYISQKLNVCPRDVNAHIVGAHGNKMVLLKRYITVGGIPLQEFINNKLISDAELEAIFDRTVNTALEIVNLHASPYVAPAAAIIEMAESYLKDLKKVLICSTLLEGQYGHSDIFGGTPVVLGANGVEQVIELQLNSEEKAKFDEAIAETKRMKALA

| Structure (SMILES) | Km ([1]; titration of LDH with linear gradient of NAD+, initial rate conditions, read-out: Km (Michaelis constant)) [µM] | mechanism of inhibition ([2]; with respect to NAD+) | mechanism of inhibition ([2]; with respect to lactate) | mechanism of inhibition ([1]; with respect to substrate NAD+, continuous gradient) | mechanism of inhibition ([3]; with respect to NAD+, ambiguous) | mechanism of inhibition ([3]; with respect to lactate, not certain) |
| --- | --- | --- | --- | --- | --- | --- |
| NC(=O)c1ccc[n+]([C@@H]2O[C@H](COP(=O)([O-])OP(=O)(O)OC[C@H]3O[C@@H](n4cnc5c(N)ncnc54)[C@H](O)[C@@H]3O)[C@@H](O)[C@H]2O)c1 [NAD^+] | 54 ± 2 |  |  |  |  |  |
| O=C(O)C(=O)O [oxalate] |  | uncompetitive | competitive inhibitor | uncompetitive inhibition | uncompetitive inhibitor | competitive inhibitor |
